Assay: recombinant barcode read abundance after kanamycin selection (control-corrected) (log10(CPM+1)); higher = more efficient recombination; sequences stand for … in AGTGCAGAGAAAATCGGCCAGTTTTCTCTGCCTGCAGTCCGCATGCCGT…AGATTTATGCAGCGGACTGCCTTTCTCCCAAAGTGATAAACCGGACAGTATCATGGACCGGTTTTCCCGGTAATCCGTATTTGCAAGGTTGGTTTCACT; site = the 11-nt target
Outline: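 Recombination efficiency comes from barcode counts at recombinant junctions, converted to counts per million, averaged and corrected against the control. Values appear as log10(CPM+1). They were obtained from a pooled E. coli screen in which each oligo paired a target with an IS621 bridge RNA target-binding loop, and cells were plated in duplicate on chloramphenicol/ampicillin LB agar or on chloramphenicol/ampicillin/kanamycin with 0.1 mM IPTG.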
In the case of “TAGTAGTCTTGGGTTCTAACCTGTTGCAT (site TAGTAGTCTAT)”, the “recombinant barcode read abundance (log10)” value is reported as 2.12. For “TAGTAGTCTTGGGTTCTAACCTGTTGCTT (site TAGTAGTCTAA)”, the “recombinant barcode read abundance (log10)” value was 1.55. In the case of “TAGTAGTCTTGGGTTCTAACCTGTTGCTT (site TAGTAGTCTAC)”, the “recombinant barcode read abundance (log10)” value is reported as 0.635. In the case of “TAGTAGTCTTGGGTTCTAACCTGTTGCTT (site TAGTAGTCTAG)”, the “recombinant barcode read abundance (log10)” value is reported as 0.659. In the case of “TAGTAGTCTTGGGTTCTAACCTGTTGCTT (site TAGTAGTCTAT)”, the “recombinant barcode read abundance (log10)” value is reported as 1.15. With “TAGTGATCTTGGGTTCTAACCTGTTGCCT (site TAATGATCTAG)” the “recombinant barcode read abundance (log10)” value was 0. In the case of “TAGTGATCTTGGGTTCTAACCTGTTGCCT (site TACTGATCTAG)”, the “recombinant barcode read abundance (log10)” value is reported as 0.072. For “TAGTGATCTTGGGTTCTAACCTGTTGCCT (site TAGTGATCTAG)”, the “recombinant barcode read abundance (log10)” value was 0.783. In the case of “TAGTGATCTTGGGTTCTAACCTGTTGCCT (site TATTGATCTAG)”, the “recombinant barcode read abundance (log10)” value is reported as 0.0361. With “TAGTGGCCTTGGGTTCTAACCTGTTGCTA (site CCTGACTCTAT)” the “recombinant barcode read abundance (log10)” value was 0. In the case of “TAGTGGCCTTGGGTTCTAACCTGTTGCTA (site TAGTGGCCTTA)”, the “recombinant barcode read abundance (log10)” value is reported as 0.132. For “TAGTGGTCTTGGGTTCTAACCTGTTGCTA (site TAGTGGTCTAT)”, the “recombinant barcode read abundance (log10)” value was 0.403. For “TAGTGGTCTTGGGTTCTAACCTGTTGCTA (site TAGTGGTCTTA)”, the “recombinant barcode read abundance (log10)” value was 1.01. In the case of “TAGTTTCCTTGGGTTCTAACCTGTTGCGT (site TAGTATCCTAC)”, the “recombinant barcode read abundance (log10)” value is reported as 0.3. With “TAGTTTCCTTGGGTTCTAACCTGTTGCGT (site TAGTCTCCTAC)” the “recombinant barcode read abundance (log10)” value was 0.0219. In the case of “TAGTTTCCTTGGGTTCTAACCTGTTGCGT (site TAGTGTCCTAC)”, the “recombinant barcode read abundance (log10)” value is reported as 0.206. In the case of “TAGTTTCCTTGGGTTCTAACCTGTTGCGT (site TAGTTTCCTAC)”, the “recombinant barcode read abundance (log10)” value is reported as 0.875. With “TAGTTTGCTTGGGTTCTAACCTGTTGCGA (site CGTCGGACTCT)” the “recombinant barcode read abundance (log10)” value was 0.00829. With “TAGTTTGCTTGGGTTCTAACCTGTTGCGA (site TAGTTTGCTTC)” the “recombinant barcode read abundance (log10)” value was 0.171. In the case of “TATAATTCTTGGGTTCTAACCTGTTGCTT (site TATAATTCTAA)”, the “recombinant barcode read abundance (log10)” value is reported as 0.164. In the case of “TATAATTCTTGGGTTCTAACCTGTTGCTT (site TTCAATTCTAA)”, the “recombinant barcode read abundance (log10)” value is reported as 0.146. With “TATACAACTTGGGTTCTAACCTGTTGCCT (site TATAAAACTAG)” the “recombinant barcode read abundance (log10)” value was 0.089. In the case of “TATACAACTTGGGTTCTAACCTGTTGCCT (site TATACAACTAG)”, the “recombinant barcode read abundance (log10)” value is reported as 0.112. For “TATACAACTTGGGTTCTAACCTGTTGCCT (site TATAGAACTAG)”, the “recombinant barcode read abundance (log10)” value was 0.0301. In the case of “TATACAACTTGGGTTCTAACCTGTTGCCT (site TATATAACTAG)”, the “recombinant barcode read abundance (log10)” value is reported as 0.0752. In the case of “TATACAGCTTGGGTTCTAACCTGTTGCCT (site TAAACAGCTAG)”, the “recombinant barcode read abundance (log10)” value is reported as 0.156. For “TATACAGCTTGGGTTCTAACCTGTTGCCT (site TACACAGCTAG)”, the “recombinant barcode read abundance (log10)” value was 0.192. In the case of “TATACAGCTTGGGTTCTAACCTGTTGCCT (site TAGACAGCTAG)”, the “recombinant barcode read abundance (log10)” value is reported as 0.0546. In the case of “TATACAGCTTGGGTTCTAACCTGTTGCCT (site TATACAGCTAG)”, the “recombinant barcode read abundance (log10)” value is reported as 0.592. For “TATACTACTTGGGTTCTAACCTGTTGCCT (site TATACTACTAG)”, the “recombinant barcode read abundance (log10)” value was 0.0122. For “TATACTACTTGGGTTCTAACCTGTTGCCT (site TATACTGCTAG)”, the “recombinant barcode read abundance (log10)” value was 0.0258. For “TATACTACTTGGGTTCTAACCTGTTGCTT (site CACACTACTAA)”, the “recombinant barcode read abundance (log10)” value was 0.0534. With “TATACTACTTGGGTTCTAACCTGTTGCTT (site TATACTACTAA)” the “recombinant barcode read abundance (log10)” value was 0.0375. With “TATAGGACTTGGGTTCTAACCTGTTGCGT (site GATAGGACTAC)” the “recombinant barcode read abundance (log10)” value was 0.0102. In the case of “TATAGGACTTGGGTTCTAACCTGTTGCGT (site TATAGGACTAC)”, the “recombinant barcode read abundance (log10)” value is reported as 2.03. In the case of “TATAGTACTTGGGTTCTAACCTGTTGCCT (site TATAGTACTAG)”, the “recombinant barcode read abundance (log10)” value is reported as 0.152. With “TATAGTACTTGGGTTCTAACCTGTTGCCT (site TATTGTCCTAG)” the “recombinant barcode read abundance (log10)” value was 0.0337. With “TATCCATCTTGGGTTCTAACCTGTTGCCT (site TAACCATCTAG)” the “recombinant barcode read abundance (log10)” value was 0.0695. For “TATCCATCTTGGGTTCTAACCTGTTGCCT (site TACCCATCTAG)”, the “recombinant barcode read abundance (log10)” value was 0.0382. With “TATCCATCTTGGGTTCTAACCTGTTGCCT (site TAGCCATCTAG)” the “recombinant barcode read abundance (log10)” value was 0.0545. In the case of “TATCCATCTTGGGTTCTAACCTGTTGCCT (site TATCCATCTAG)”, the “recombinant barcode read abundance (log10)” value is reported as 0.618. In the case of “TATGAGGCTTGGGTTCTAACCTGTTGCCT (site TATGAGGCTAG)”, the “recombinant barcode read abundance (log10)” value is reported as 0.433. For “TATGAGGCTTGGGTTCTAACCTGTTGCCT (site TATGCGGCTAG)”, the “recombinant barcode read abundance (log10)” value was 0.26. For “TATGAGGCTTGGGTTCTAACCTGTTGCCT (site TATGGGGCTAG)”, the “recombinant barcode read abundance (log10)” value was 0.0447. For “TATGAGGCTTGGGTTCTAACCTGTTGCCT (site TATGTGGCTAG)”, the “recombinant barcode read abundance (log10)” value was 0.162. In the case of “TATGGAGCTTGGGTTCTAACCTGTTGCAG (site GTTGGAGCTCT)”, the “recombinant barcode read abundance (log10)” value is reported as 1.14. For “TATGGAGCTTGGGTTCTAACCTGTTGCAG (site TATGGAGCTCT)”, the “recombinant barcode read abundance (log10)” value was 2.34. With “TATGTAGCTTGGGTTCTAACCTGTTGCCC (site TATGTAGCTAG)” the “recombinant barcode read abundance (log10)” value was 0.226. For “TATGTAGCTTGGGTTCTAACCTGTTGCCC (site TATGTAGCTCG)”, the “recombinant barcode read abundance (log10)” value was 0.0813. With “TATGTAGCTTGGGTTCTAACCTGTTGCCC (site TATGTAGCTGG)” the “recombinant barcode read abundance (log10)” value was 1.36. In the case of “TATGTAGCTTGGGTTCTAACCTGTTGCCC (site TATGTAGCTTG)”, the “recombinant barcode read abundance (log10)” value is reported as 0.239. With “TATTATACTTGGGTTCTAACCTGTTGCAT (site TATTATACTAA)” the “recombinant barcode read abundance (log10)” value was 0.0319. In the case of “TATTATACTTGGGTTCTAACCTGTTGCAT (site TATTATACTAC)”, the “recombinant barcode read abundance (log10)” value is reported as 0.0379. In the case of “TATTATACTTGGGTTCTAACCTGTTGCAT (site TATTATACTAG)”, the “recombinant barcode read abundance (log10)” value is reported as 0.0602. For “TATTATACTTGGGTTCTAACCTGTTGCAT (site TATTATACTAT)”, the “recombinant barcode read abundance (log10)” value was 0.167. In the case of “TATTATACTTGGGTTCTAACCTGTTGCGT (site TATTATACTAA)”, the “recombinant barcode read abundance (log10)” value is reported as 0.116. With “TATTATACTTGGGTTCTAACCTGTTGCGT (site TATTATACTAC)” the “recombinant barcode read abundance (log10)” value was 0.335. In the case of “TATTATACTTGGGTTCTAACCTGTTGCGT (site TATTATACTAG)”, the “recombinant barcode read abundance (log10)” value is reported as 0.0727. With “TATTATACTTGGGTTCTAACCTGTTGCGT (site TATTATACTAT)” the “recombinant barcode read abundance (log10)” value was 0.16. For “TATTATACTTGGGTTCTAACCTGTTGCTT (site TATTATACTAA)”, the “recombinant barcode read abundance (log10)” value was 0.0915. For “TATTATACTTGGGTTCTAACCTGTTGCTT (site TATTATACTAC)”, the “recombinant barcode read abundance (log10)” value was 0.116. In the case of “TATTATACTTGGGTTCTAACCTGTTGCTT (site TATTATACTAG)”, the “recombinant barcode read abundance (log10)” value is reported as 0.245. With “TATTATACTTGGGTTCTAACCTGTTGCTT (site TATTATACTAT)” the “recombinant barcode read abundance (log10)” value was 0.34. For “TATTCTACTTGGGTTCTAACCTGTTGCGC (site TATTCTACTAC)”, the “recombinant barcode read abundance (log10)” value was 0.0305. With “TATTCTACTTGGGTTCTAACCTGTTGCGC (site TATTCTACTCC)” the “recombinant barcode read abundance (log10)” value was 0.0687. With “TATTCTACTTGGGTTCTAACCTGTTGCGC (site TATTCTACTGC)” the “recombinant barcode read abundance (log10)” value was 0.0329. In the case of “TATTCTACTTGGGTTCTAACCTGTTGCGC (site TATTCTACTTC)”, the “recombinant barcode read abundance (log10)” value is reported as 0.0215. In the case of “TATTGATCTTGGGTTCTAACCTGTTGCCT (site TAATGATCTAG)”, the “recombinant barcode read abundance (log10)” value is reported as 0.347. In the case of “TATTGATCTTGGGTTCTAACCTGTTGCCT (site TACTGATCTAG)”, the “recombinant barcode read abundance (log10)” value is reported as 0.162. For “TATTGATCTTGGGTTCTAACCTGTTGCCT (site TAGTGATCTAG)”, the “recombinant barcode read abundance (log10)” value was 0.0784. With “TATTGATCTTGGGTTCTAACCTGTTGCCT (site TATTGATCTAG)” the “recombinant barcode read abundance (log10)” value was 0.235. With “TATTGCCCTTGGGTTCTAACCTGTTGCCT (site TAATGCCCTAG)” the “recombinant barcode read abundance (log10)” value was 0.203. With “TATTGCCCTTGGGTTCTAACCTGTTGCCT (site TATTGCCCTAG)” the “recombinant barcode read abundance (log10)” value was 0.117. For “TCAAACCCTTGGGTTCTAACCTGTTGCGG (site TCAAACCCTCC)”, the “recombinant barcode read abundance (log10)” value was 1.6. In the case of “TCAAACCCTTGGGTTCTAACCTGTTGCGG (site TCCAACCCTCC)”, the “recombinant barcode read abundance (log10)” value is reported as 0.292. In the case of “TCAAACCCTTGGGTTCTAACCTGTTGCGG (site TCGAACCCTCC)”, the “recombinant barcode read abundance (log10)” value is reported as 0.0489. For “TCAAACCCTTGGGTTCTAACCTGTTGCGG (site TCTAACCCTCC)”, the “recombinant barcode read abundance (log10)” value was 0.279.

Source: the supplement of paper PMC11208160
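Also: IS621 recombinase and bridge RNA in Escherichia coli cells.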
